Measured values from ChEMBL document CHEMBL3045563, “Synthesis and in vitro antibacterial activity of schiff bases of N-substituted isatins as effective scaffolds” (2013).
Converted amounts (≈) assume the structure as drawn.

Columns and labels:
Assay type in all cases: functional
Proteus vulgaris [1] = experiment: Antibacterial activity against Proteus vulgaris NCIM 2027 assessed as diameter of growth zone inhibition after 24 hr by disk diffusion method
Pseudomonas aeruginosa [2] = experiment: Antibacterial activity against Pseudomonas aeruginosa NCIM 2036 assessed as diameter of growth zone inhibition after 24 hr by disk diffusion method
Staphylococcus aureus [3] = experiment: Antibacterial activity against Staphylococcus aureus NCIM 2079 assessed as growth inhibition after 48 hr by NCCLS broth dilution method; conditions: NCIM 2079, 48 h
[4] = system: Staphylococcus epidermidis; experiment: Antibacterial activity against Staphylococcus epidermidis NCIM 2493 assessed as diameter of growth zone inhibition after 24 hr by disk diffusion method
Staphylococcus aureus [5] = experiment: Antibacterial activity against Staphylococcus aureus NCIM 2079 assessed as diameter of growth zone inhibition after 24 hr by disk diffusion method
Pseudomonas aeruginosa [6] = experiment: Antibacterial activity against Pseudomonas aeruginosa NCIM 2036 assessed as growth inhibition after 48 hr by NCCLS broth dilution method; conditions: NCIM 2036, 48 h
Bacillus subtilis [7] = experiment: Antibacterial activity against Bacillus subtilis NCIM 2156 assessed as growth inhibition after 48 hr by NCCLS broth dilution method; conditions: NCIM 2156, 48 h
Proteus vulgaris [8] = experiment: Antibacterial activity against Proteus vulgaris NCIM 2027 assessed as growth inhibition after 48 hr by NCCLS broth dilution method; conditions: NCIM 2027, 48 h
[9] = system: Staphylococcus epidermidis; experiment: Antibacterial activity against Staphylococcus epidermidis NCIM 2493 assessed as growth inhibition after 48 hr by NCCLS broth dilution method; conditions: NCIM 2493, 48 h
Escherichia coli [10] = experiment: Antibacterial activity against Escherichia coli NCIM 2065 assessed as diameter of growth zone inhibition after 24 hr by disk diffusion method
Escherichia coli [11] = experiment: Antibacterial activity against Escherichia coli NCIM 2065 assessed as growth inhibition after 48 hr by NCCLS broth dilution method; conditions: NCIM 2065, 48 h
Bacillus subtilis [12] = experiment: Antibacterial activity against Bacillus subtilis NCIM 2156 assessed as diameter of growth zone inhibition after 24 hr by disk diffusion method

MIC (Staphylococcus aureus [3])	MIC (Pseudomonas aeruginosa [6])	MIC (Bacillus subtilis [7])	MIC (Proteus vulgaris [8])	MIC [9]	MIC (Escherichia coli [11])	SMILES	diameter of the inhibition zone (DIZ) (Proteus vulgaris [1])	diameter of the inhibition zone (DIZ) (Pseudomonas aeruginosa [2])	diameter of the inhibition zone (DIZ) [4]	diameter of the inhibition zone (DIZ) (Staphylococcus aureus [5])	diameter of the inhibition zone (DIZ) (Escherichia coli [10])	diameter of the inhibition zone (DIZ) (Bacillus subtilis [12])
10 µg/mL (≈ 23.3 µM)	15 µg/mL (≈ 34.9 µM)	25 µg/mL (≈ 58.2 µM)	20 µg/mL (≈ 46.5 µM)	15 µg/mL (≈ 34.9 µM)	20 µg/mL (≈ 46.5 µM)	Cc1ccc2c(c1)/C(=N/c1ccc(N3C(=O)c4ccc(Cl)cc4C3=O)c(C)c1)C(=O)N2	10 mm	16 mm	10 mm	20 mm	12 mm	12 mm
15 µg/mL (≈ 23.7 µM)	15 µg/mL (≈ 23.7 µM)	10 µg/mL (≈ 15.8 µM)	10 µg/mL (≈ 15.8 µM)	15 µg/mL (≈ 23.7 µM)	10 µg/mL (≈ 15.8 µM)	Cc1cc(/N=C2\C(=O)N(S(=O)(=O)C(F)(F)F)c3ccc(OC(F)(F)F)cc32)ccc1N1C(=O)c2ccc(Cl)cc2C1=O	20 mm	12 mm	10 mm	18 mm	23 mm	20 mm
10 µg/mL (≈ 20 µM)	10 µg/mL (≈ 20 µM)	15 µg/mL (≈ 30 µM)	15 µg/mL (≈ 30 µM)	10 µg/mL (≈ 20 µM)	10 µg/mL (≈ 20 µM)	Cc1cc(/N=C2\C(=O)Nc3ccc(OC(F)(F)F)cc32)ccc1N1C(=O)c2ccc(Cl)cc2C1=O	14 mm	20 mm	18 mm	18 mm	24 mm	16 mm
10 µg/mL (≈ 14.6 µM)	10 µg/mL (≈ 14.6 µM)	15 µg/mL (≈ 21.9 µM)	10 µg/mL (≈ 14.6 µM)	10 µg/mL (≈ 14.6 µM)	10 µg/mL (≈ 14.6 µM)	Cc1cc(/N=C2\C(=O)N(S(=O)(=O)c3ccc([N+](=O)[O-])cc3)c3ccc(OC(F)(F)F)cc32)ccc1N1C(=O)c2ccc(Cl)cc2C1=O	22 mm	18 mm	18 mm	20 mm	20 mm	14 mm
25 µg/mL (≈ 50.1 µM)	15 µg/mL (≈ 30.1 µM)	30 µg/mL (≈ 60.1 µM)	20 µg/mL (≈ 40.1 µM)	20 µg/mL (≈ 40.1 µM)	15 µg/mL (≈ 30.1 µM)	C#CCN1C(=O)/C(=N\c2ccc(N3C(=O)c4ccc(Cl)cc4C3=O)c(C)c2)c2cc([N+](=O)[O-])ccc21	10 mm	14 mm	8 mm	13 mm	18 mm	8 mm

Second part, the compound before the results:

SMILES	MIC (Staphylococcus aureus [3])	MIC (Pseudomonas aeruginosa [6])	MIC (Bacillus subtilis [7])	MIC (Proteus vulgaris [8])	MIC [9]	MIC (Escherichia coli [11])	diameter of the inhibition zone (DIZ) (Proteus vulgaris [1])	diameter of the inhibition zone (DIZ) (Pseudomonas aeruginosa [2])	diameter of the inhibition zone (DIZ) [4]	diameter of the inhibition zone (DIZ) (Staphylococcus aureus [5])	diameter of the inhibition zone (DIZ) (Escherichia coli [10])	diameter of the inhibition zone (DIZ) (Bacillus subtilis [12])
Cc1cc(/N=C2\C(=O)N(S(C)(=O)=O)c3ccc(OC(F)(F)F)cc32)ccc1N1C(=O)c2ccc(Cl)cc2C1=O	15 µg/mL (≈ 26 µM)	15 µg/mL (≈ 26 µM)	15 µg/mL (≈ 26 µM)	15 µg/mL (≈ 26 µM)	10 µg/mL (≈ 17.3 µM)	10 µg/mL (≈ 17.3 µM)	16 mm	14 mm	18 mm	16 mm	22 mm	18 mm
Cc1cc(/N=C2\C(=O)N(Cc3ccccc3)c3ccc([N+](=O)[O-])cc32)ccc1N1C(=O)c2ccc(Cl)cc2C1=O	30 µg/mL (≈ 54.5 µM)	15 µg/mL (≈ 27.2 µM)	25 µg/mL (≈ 45.4 µM)	15 µg/mL (≈ 27.2 µM)	15 µg/mL (≈ 27.2 µM)	15 µg/mL (≈ 27.2 µM)	14 mm	14 mm	10 mm	12 mm	16 mm	10 mm
Cc1cc(/N=C2\C(=O)N(S(=O)(=O)c3ccc([N+](=O)[O-])cc3)c3ccc([N+](=O)[O-])cc32)ccc1N1C(=O)c2ccc(Cl)cc2C1=O	10 µg/mL (≈ 15.5 µM)	10 µg/mL (≈ 15.5 µM)	15 µg/mL (≈ 23.2 µM)	15 µg/mL (≈ 23.2 µM)	10 µg/mL (≈ 15.5 µM)	10 µg/mL (≈ 15.5 µM)	14 mm	18 mm	20 mm	18 mm	22 mm	16 mm
Cc1cc(/N=C2\C(=O)N(Cc3ccccc3)c3ccc(OC(F)(F)F)cc32)ccc1N1C(=O)c2ccc(Cl)cc2C1=O	25 µg/mL (≈ 42.4 µM)	20 µg/mL (≈ 33.9 µM)	25 µg/mL (≈ 42.4 µM)	20 µg/mL (≈ 33.9 µM)	20 µg/mL (≈ 33.9 µM)	15 µg/mL (≈ 25.4 µM)	12 mm	10 mm	8 mm	14 mm	17 mm	12 mm
CCCN1C(=O)/C(=N\c2ccc(N3C(=O)c4ccc(Cl)cc4C3=O)c(C)c2)c2cc([N+](=O)[O-])ccc21	30 µg/mL (≈ 59.7 µM)	20 µg/mL (≈ 39.8 µM)	30 µg/mL (≈ 59.7 µM)	20 µg/mL (≈ 39.8 µM)	15 µg/mL (≈ 29.8 µM)	20 µg/mL (≈ 39.8 µM)	12 mm	10 mm	12 mm	10 mm	12 mm	10 mm
O=C(O)c1cn(C2CC2)c2cc(N3CCNCC3)c(F)cc2c1=O [CIPROFLOXACIN]	10 µg/mL (≈ 30.2 µM)	10 µg/mL (≈ 30.2 µM)	10 µg/mL (≈ 30.2 µM)	10 µg/mL (≈ 30.2 µM)	10 µg/mL (≈ 30.2 µM)		28 mm	24 mm	28 mm	26 mm	30 mm	22 mm
Cc1cc(/N=C2\C(=O)N(S(C)(=O)=O)c3ccc([N+](=O)[O-])cc32)ccc1N1C(=O)c2ccc(Cl)cc2C1=O	15 µg/mL (≈ 27.8 µM)	10 µg/mL (≈ 18.6 µM)	15 µg/mL (≈ 27.8 µM)	15 µg/mL (≈ 27.8 µM)	10 µg/mL (≈ 18.6 µM)	10 µg/mL (≈ 18.6 µM)	14 mm	18 mm	18 mm	16 mm	24 mm	16 mm
C#CCN1C(=O)/C(=N\c2ccc(N3C(=O)c4ccc(Cl)cc4C3=O)c(C)c2)c2cc(OC(F)(F)F)ccc21	30 µg/mL (≈ 55.8 µM)	15 µg/mL (≈ 27.9 µM)	25 µg/mL (≈ 46.5 µM)	15 µg/mL (≈ 27.9 µM)	15 µg/mL (≈ 27.9 µM)	20 µg/mL (≈ 37.2 µM)	14 mm	12 mm	10 mm	10 mm	10 mm	11 mm
Cc1cc(/N=C2\C(=O)Nc3ccc([N+](=O)[O-])cc32)ccc1N1C(=O)c2ccc(Cl)cc2C1=O	10 µg/mL (≈ 21.7 µM)	10 µg/mL (≈ 21.7 µM)	15 µg/mL (≈ 32.5 µM)	15 µg/mL (≈ 32.5 µM)	10 µg/mL (≈ 21.7 µM)	10 µg/mL (≈ 21.7 µM)	11 mm	18 mm	20 mm	20 mm	22 mm	16 mm
